This note sets out measurements from patent US7371536B2, “Methods for transporting vitamin C” (priority 1999, dated 2008).

pKi: −log10 of the molar value.

Holding throughout (format): cell-based
Test [1] deals with T1, human SVCT1 (Homo sapiens, UniProt Q9UHI7).
T1 construct: expressed in transfected cells; host or cells: Xenopus laevis oocytes injected with cRNA (vector pTLN2)
Nature of the test: L-[14C]ascorbic acid radiotracer uptake in Xenopus oocytes expressing human SVCT1. As to conditions: data not shown. Here is the method: Functional characterization in Xenopus oocytes—SVCT1 and SVCT2 cDNAs were subcloned into the pTLN2 vector (to improve functional expression in oocytes) and used for cRNA synthesis in vitro using the MEGAscript kit and T7 RNA polymerase (from Ambion). Oocytes were isolated from Xenopus laevis, treated with collagenase A and maintained at 18° C. in modified Barths' medium. Oocytes were injected with 15 ng SVCT1 or SVCT2 cRNA or water only. The radiotracer uptake and voltage-clamp experiments described below were conducted 2-5 days post-injection in standard medium of composition 100 mM NaCl, 2 mM KCl, 1 mM CaCl2, 1 mM MgCl2, and 10 mM HEPES (buffered to pH 7.5 with Tris base). For low-Na^+ or Na^+-free media, NaCl was replaced with choline chloride. For pH-dependence experiments, Na^+ media were buffered to between pH 5.5 and pH 8.0 using 0-5 mM MES, 0-5 mM HEPES and 0-5 mM Tris base. L-Ascorbic acid-containing solutions were always freshly prepared and used immediately. […] Oocytes were solubilized with 10% SDS and carbon-14 content measured by liquid scintillation counting. A two-microelectrode voltage-clamp was used to measure currents associated with SVCT1 expressed in oocytes. Oocytes were superfused at 22° C. in standard Na^+ medium and clamped at −50 mV. Current was continuously monitored by sampling at 1 Hz. Test solutions were always washed out with substrate-free, Na^+-free medium at pH 7.5 for several minutes. Once again, saturation kinetics data were fit to a modified Hill equation in which I and Imax were replaced by uptake V and maximal velocity Vmax for analysis of radiotracer uptake data.

The target in test [2] is T1, human SVCT1. Nature of the test: Two-microelectrode voltage-clamp of Xenopus oocytes expressing human SVCT1. As to conditions: for transport / substrate selectivity (in words): 500 μM. Here is the method:
Functional characterization in Xenopus oocytes—SVCT1 and SVCT2 cDNAs were subcloned into the pTLN2 vector (to improve functional expression in oocytes) and used for cRNA synthesis in vitro using the MEGAscript kit and T7 RNA polymerase (from Ambion). Oocytes were isolated from Xenopus laevis, treated with collagenase A and maintained at 18° C. in modified Barths' medium. Oocytes were injected with 15 ng SVCT1 or SVCT2 cRNA or water only. The radiotracer uptake and voltage-clamp experiments described below were conducted 2-5 days post-injection in standard medium of composition 100 mM NaCl, 2 mM KCl, 1 mM CaCl2, 1 mM MgCl2, and 10 mM HEPES (buffered to pH 7.5 with Tris base). For low-Na^+ or Na^+-free media, NaCl was replaced with choline chloride. For pH-dependence experiments, Na^+ media were buffered to between pH 5.5 and pH 8.0 using 0-5 mM MES, 0-5 mM HEPES and 0-5 mM Tris base. L-Ascorbic acid-containing solutions were always freshly prepared and used immediately. Radiotracer uptake was determined by incubating 8-12 oocytes for 30 min (within the time-course of linear uptake) in standard Na^+, low-Na^+ or Na^+-free media with 10-500 μM L-[1-^14C]ascorbic acid (final specific activity ≈0.3 GBq/mmol). Oocytes were solubilized with 10% SDS and carbon-14 content measured by liquid scintillation counting. A two-microelectrode voltage-clamp was used to measure currents associated with SVCT1 expressed in oocytes. Oocytes were superfused at 22° C. in standard Na^+ medium and clamped at −50 mV. Current was continuously monitored by sampling at 1 Hz. Test solutions were always washed out with substrate-free, Na^+-free medium at pH 7.5 for several minutes. Once again, saturation kinetics data were fit to a modified Hill equation in which I and Imax were replaced by uptake V and maximal velocity Vmax for analysis of radiotracer uptake data.

For test [3], the target named is T2, rat SVCT1 (Rattus norvegicus, UniProt Q9WTW7).
T2 construct: expressed in transfected cells; host or cells: Xenopus laevis oocytes injected with cRNA
T2 sequence (Q9WTW7 whole entry): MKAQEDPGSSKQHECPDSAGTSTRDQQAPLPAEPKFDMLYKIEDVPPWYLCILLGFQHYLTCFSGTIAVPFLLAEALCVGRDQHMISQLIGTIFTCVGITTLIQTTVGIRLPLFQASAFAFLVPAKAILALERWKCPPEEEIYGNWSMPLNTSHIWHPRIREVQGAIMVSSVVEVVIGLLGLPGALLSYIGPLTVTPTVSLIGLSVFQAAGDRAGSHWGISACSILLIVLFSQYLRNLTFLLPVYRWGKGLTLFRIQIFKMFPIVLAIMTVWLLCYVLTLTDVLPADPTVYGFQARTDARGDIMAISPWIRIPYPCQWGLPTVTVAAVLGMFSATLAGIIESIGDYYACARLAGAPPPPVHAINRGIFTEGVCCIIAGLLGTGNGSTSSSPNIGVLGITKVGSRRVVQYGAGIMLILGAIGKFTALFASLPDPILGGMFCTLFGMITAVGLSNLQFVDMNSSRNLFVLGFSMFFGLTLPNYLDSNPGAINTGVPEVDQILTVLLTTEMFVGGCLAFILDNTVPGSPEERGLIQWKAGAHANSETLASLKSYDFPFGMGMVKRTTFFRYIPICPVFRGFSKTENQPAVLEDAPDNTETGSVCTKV
Nature of the test: Two-microelectrode voltage-clamp of Xenopus oocytes expressing rat SVCT1. As to conditions: for evoked current / substrate selectivity (in words): oocytes expressing SVCT1; for evoked current relative to that for L-ascorbic acid: substrate selectivity, FIG. 4F. Here is the method: Rat SVCT1 and SVCT2 clones were obtained by isolating SVCT1 cDNA from rat kidney by expression cloning as described in Hediger et al., Methods Enzymol. 296:17-52 (1998). The SVCT2 cDNA was subsequently isolated by PCR-based homology screening of a rat brain cDNA library. […] Radiotracer and voltage-clamp experiments were performed (at 22° C.) in Xenopus oocytes two to seven days after injection with ˜25 ng of SVCT1 or SVCT2 cRNA synthesized in vitro. Radiotracer uptake was determined by incubating 6-10 oocytes for 30 or 60 min in standard 100 mM Na^+ or Na^+-free media with 10-600 μM L-[^14C]ascorbic acid.
(§1) Functional characterization of SVCT1 and SVCT2 in Xenopus oocytes—Oocytes were isolated from Xenopus laevis (under 2-aminoethylbenzoate anaesthesia), treated with collagenase A and stored at 18° C. in modified Barths' medium. Oocytes were injected with ≈25 ng of SVCT1 or SVCT2 cRNA synthesized in vitro, or water only (control), and incubated 2-7 days before radiotracer or voltage-clamp experiments were performed. Standard Na^+ uptake medium comprised 100 mM NaCl, 2 mM KCl, 1 mM CaCl2, 1 mM MgCl2, 10 mM HEPES (pH 7.5 with Tris base). For Na^+-free or low-Na^+ media, NaCl was replaced by equimolar choline chloride; likewise, Cl^− was replaced by gluconate for Cl^−-free medium. For pH-sensitivity experiments, Na^+ media were buffered at pH 5.5-8.0 using 0-5 mM MES, 0-5 mM HEPES and 0-5 mM Tris base. L-Ascorbic acid-containing solutions were freshly-prepared (without dithiothreitol) and used immediately.
(§2) Radiotracer uptake was determined by incubating 6-10 oocytes for 30 or 60 min in standard Na^+ or Na^+-free media (at 22° C.) with 10-600 μM L-[1-^14C]ascorbic acid (final specific activity 0.3 GBq/mmol). Oocytes were solubilized with 10% SDS and [^14C]-content was measured by liquid scintillation counting. A two-microelectrode voltage-clamp was used to measure currents in control oocytes and oocytes injected with rat SVCT1 or rat SVCT2 cRNA. Microelectrodes (resistance 0.5-5 MΩ) were filled with 3 M KCl. Oocytes were superfused at 22° C. in standard Na^+ medium and clamped at a holding potential (Vh) of −50 mV. For continuous current monitoring at Vh=−50 mV, the current was low-pass filtered at 20 Hz (sampling at 1 Hz). Additionally, step-changes in membrane potential (Vm) were applied (from +50 mV to −150 mV in 20-mV increments), each for a duration of 100 ms, before and after the addition of substrate; current was low-pass filtered at 500 Hz and digitized at 5 kHz. Test solutions were always washed out with substrate-free medium (100 mM choline chloride) at pH 7.5 for several minutes. Steady-state data (obtained by averaging the points over the final 16.7 ms at each Vm step when step-changes were applied) were fitted to equation (1) below, for which I is the evoked current (i.e., the difference in steady-state current measured in the presence and absence of substrate), Imax the derived current maximum, S the concentration of substrate S (Na^+ or L-ascorbic acid),
(§3) [formula] the substrate concentration at which current was half-maximal, and nH the Hill coefficient for S. (For radiotracer experiments, I was replaced with velocity V and Imax replaced with the derived maximal velocity, Vmax.)

For another test, the target named is T3, rat SVCT2 (Rattus norvegicus, UniProt Q9WTW8).
T3 construct: expressed in transfected cells; host or cells: Xenopus laevis oocytes injected with cRNA (vector pTLN2)
T3 sequence (Q9WTW8 whole entry): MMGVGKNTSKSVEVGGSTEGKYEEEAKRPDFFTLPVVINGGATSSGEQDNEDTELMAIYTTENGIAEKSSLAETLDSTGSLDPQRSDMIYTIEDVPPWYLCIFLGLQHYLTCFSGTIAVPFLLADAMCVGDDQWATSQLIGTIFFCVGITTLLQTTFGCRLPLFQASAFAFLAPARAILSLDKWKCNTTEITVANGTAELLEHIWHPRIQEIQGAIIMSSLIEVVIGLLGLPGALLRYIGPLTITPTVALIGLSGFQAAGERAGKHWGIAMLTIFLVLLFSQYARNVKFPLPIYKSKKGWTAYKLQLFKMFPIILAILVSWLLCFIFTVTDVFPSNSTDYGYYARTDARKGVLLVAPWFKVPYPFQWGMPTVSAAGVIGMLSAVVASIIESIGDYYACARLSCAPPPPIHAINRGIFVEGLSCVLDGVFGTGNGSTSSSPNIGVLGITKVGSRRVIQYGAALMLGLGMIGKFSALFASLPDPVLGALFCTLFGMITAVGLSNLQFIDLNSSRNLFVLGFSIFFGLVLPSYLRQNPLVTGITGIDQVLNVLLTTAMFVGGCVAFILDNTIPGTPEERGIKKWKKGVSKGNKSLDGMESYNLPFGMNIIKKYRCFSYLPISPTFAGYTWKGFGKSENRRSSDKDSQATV
Nature of the test: L-[14C]ascorbic acid radiotracer uptake in Xenopus oocytes expressing rat SVCT2. Here is the method:
(§4) Rat SVCT1 and SVCT2 clones were obtained by isolating SVCT1 cDNA from rat kidney by expression cloning as described in Hediger et al., Methods Enzymol. 296:17-52 (1998). The SVCT2 cDNA was subsequently isolated by PCR-based homology screening of a rat brain cDNA library. A 2.5-kb rabbit cDNA with 96% identity to residues 96-505 of the rat SVCT2 was obtained by RT-PCR. Radiotracer and voltage-clamp experiments were performed (at 22° C.) in Xenopus oocytes two to seven days after injection with ˜25 ng of SVCT1 or SVCT2 cRNA synthesized in vitro. Radiotracer uptake was determined by incubating 6-10 oocytes for 30 or 60 min in standard 100 mM Na^+ or Na^+-free media with 10-600 μM L-[^14C]ascorbic acid.
as §1
as §2, with “Additionally, step-changes in membrane potential (Vm) were applied (from +50 mV to −150 mV in 20-mV increments), each for a duration of 100 ms, before and after the addition of substrate; current was low-pass filtered at 500 Hz and digitized at 5 kHz. Test solutions were always washed out with substrate-free medium (100 mM choline chloride) at pH 7.5 for several minutes.” left out, “acid), […]” for “acid),”

The target of test [4] is T2, rat SVCT1. Nature of the test: L-[14C]ascorbic acid radiotracer uptake in Xenopus oocytes expressing rat SVCT1. On the procedure:
as §4, §1, §2, §3

T1 sequence (Q9UHI7 whole entry): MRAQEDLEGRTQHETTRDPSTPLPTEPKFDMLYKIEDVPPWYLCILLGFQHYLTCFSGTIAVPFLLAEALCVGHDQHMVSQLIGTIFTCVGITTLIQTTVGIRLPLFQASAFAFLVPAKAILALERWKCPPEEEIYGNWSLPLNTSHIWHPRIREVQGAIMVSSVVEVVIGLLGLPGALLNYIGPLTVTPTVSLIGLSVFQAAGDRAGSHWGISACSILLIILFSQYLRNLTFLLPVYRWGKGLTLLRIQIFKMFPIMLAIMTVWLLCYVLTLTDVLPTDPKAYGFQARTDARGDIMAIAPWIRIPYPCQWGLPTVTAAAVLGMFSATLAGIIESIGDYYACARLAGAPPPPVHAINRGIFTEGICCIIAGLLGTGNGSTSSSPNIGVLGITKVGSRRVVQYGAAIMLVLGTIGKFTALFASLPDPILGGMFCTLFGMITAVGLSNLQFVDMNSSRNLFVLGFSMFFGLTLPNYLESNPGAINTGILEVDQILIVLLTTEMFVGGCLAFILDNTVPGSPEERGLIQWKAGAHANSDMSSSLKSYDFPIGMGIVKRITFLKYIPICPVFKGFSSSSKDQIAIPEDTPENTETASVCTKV

Take `O=C[C@H](O)[C@@H](O)[C@H](O)[C@H](O)CO` [D-glucose]: the “inhibition of L-[14C]ascorbic acid uptake (in words)” value against human SVCT1 [1] was “not significantly inhibited”. The “transport / substrate selectivity (in words)” value on human SVCT1 [2] (−50 mV) is recorded as “excluded”. Also, the “evoked current / substrate selectivity (in words)” value at rat SVCT1 [3] is “excluded”.
Take `O=C1O[C@H]([C@H](O)CO)C(O)=C1O` [D-isoascorbic acid]: the “evoked current relative to that of L-ascorbic acid” value on human SVCT1 [2] (each at 500 μM, −50 mV) is reported as “about 15%”. For the same compound, the “K0.5 based on evoked currents” value at human SVCT1 [2] (−50 mV) was determined as 2.7 ± 1.2 mM. Also, the “evoked current relative to that for L-ascorbic acid” value at rat SVCT1 [3] was “≈ 30%”.
For `O=C1O[C@H]([C@@H](O)CO)[C@H](O)[C@@H]1O` [L-gulono-γ-lactone], on human SVCT1 [2] (−50 mV), the “transport / substrate selectivity (in words)” value is reported as “excluded”. In addition, the “evoked current / substrate selectivity (in words)” value on rat SVCT1 [3] is listed as “excluded”.
For the compound `CC(=O)Oc1ccccc1C(=O)O` [aspirin, acetyl-salicylic acid], the “inhibition of SVCT2-mediated L-[14C]ascorbic acid uptake (in words)” value against rat SVCT2 is reported as “modest inhibition”. The “inhibition of L-[14C]ascorbic acid uptake (in words)” value against human SVCT1 [1] is recorded as “not significantly inhibited”. The “evoked current / substrate selectivity (in words)” value at rat SVCT1 [3] is “tiny outward currents”. Also, on rat SVCT1 [4], the “inhibition of SVCT1-mediated L-[14C]ascorbic acid uptake (in words)” value was “modest inhibition”.
As to `O=C1O[C@H]([C@@H](O)CO)C(=O)C1=O` [dehydroascorbic acid], at human SVCT1 [2] (−50 mV), the “transport / substrate selectivity (in words)” value is given as “barely transported”. Also, the “evoked current relative to that for L-ascorbic acid” value at rat SVCT1 [3] was “≈ 5%”.
As usually defined, the pKi is the negative decadic logarithm of the Ki, by convention in mol/L. For `O=C(CCc1ccc(O)cc1)c1c(O)cc(O)cc1O` [phloretin], at rat SVCT2, the “inhibition of SVCT2-mediated L-[14C]ascorbic acid uptake (in words)” value was “inhibited”. In addition, the “inhibition of L-[14C]ascorbic acid uptake” value against human SVCT1 [1] is “≈ 80%”. For the same compound, the “inhibition of the L-ascorbic acid-evoked current (in words)” value at human SVCT1 [2] (FIG. 8A, 100 μM phloretin) is recorded as “potent inhibitor”. Moreover, the “block of the Na^+ leak current (in words)” value on human SVCT1 [2] (absence of L-ascorbic acid or other substrate) is given as “blocked”. Moreover, the “block of the inward current evoked by L-ascorbic acid” value on rat SVCT1 [3] (FIG. 4H) is “blocked”. Besides, the “evoked current / substrate selectivity (in words)” value on rat SVCT1 [3] is “sizable outward current”. Besides, the pKi is around 4.00 on rat SVCT1 [3] (uniport mode, absence of L-ascorbic acid, read-out: apparent Ki, inhibition of the Na^+ leak current) and around 4.19 at rat SVCT1 [4] (FIG. 4I, read-out: Ki, Dixon analysis of L-[14C]ascorbic acid uptake). Also, the “inhibition of SVCT1-mediated L-[14C]ascorbic acid uptake (in words)” value on rat SVCT1 [4] is “inhibited”. In addition, on rat SVCT1 [4] (Dixon analysis), the “mode of inhibition of L-[14C]ascorbic acid uptake” value is recorded as “non-competitive inhibitor”.
As to `O=C(CCc1ccc(O)cc1)c1c(O)cc(O)cc1O[C@@H]1O[C@H](CO)[C@@H](O)[C@H](O)[C@H]1O` [phlorizin], the “inhibition of SVCT2-mediated L-[14C]ascorbic acid uptake (in words)” value against rat SVCT2 is recorded as “modest inhibition”. Besides, at rat SVCT1 [3], the “evoked current / substrate selectivity (in words)” value is recorded as “tiny outward currents”. Also, the “inhibition of SVCT1-mediated L-[14C]ascorbic acid uptake (in words)” value against rat SVCT1 [4] was “modest inhibition”.
Take `O=c1[nH]c(=O)c2[nH]cnc2[nH]1` [xanthine]: the “inhibition of SVCT2-mediated L-[14C]ascorbic acid uptake (in words)” value at rat SVCT2 is on record as “modest inhibition”. In addition, at rat SVCT1 [3], the “evoked current / substrate selectivity (in words)” value is listed as “tiny outward currents”. For the same compound, at rat SVCT1 [4], the “inhibition of SVCT1-mediated L-[14C]ascorbic acid uptake (in words)” value is given as “modest inhibition”.
